Type in all cases: functional
Experiment [1] concerns Enterococcus faecium. Put plainly: Antibacterial activity against gram positive vancomycin-sensitive Enterococcus faecium CICC 6049 assessed as inhibition of bacterial growth incubated for 20 hrs by microtiter plate method.
Experiment [2] has as its system Enterococcus faecium. Put plainly: Antibacterial activity against gram positive vancomycin-resistant Enterococcus faecium ATCC 51559 assessed as inhibition of bacterial growth incubated for 20 hrs by microtiter plate method.
The subject of experiment [3] is Enterococcus faecium. Put plainly: Antibacterial activity against gram positive vancomycin-sensitive Enterococcus faecium CICC 20419 assessed as inhibition of bacterial growth incubated for 20 hrs by microtiter plate method.
Experiment [4] has as its system Staphylococcus aureus. Put plainly: Antibacterial activity against gram positive methicillin-sensitive Staphylococcus aureus ATCC 25923 assessed as inhibition of bacterial growth incubated for 20 hrs by microtiter plate method.
Experiment [5] concerns Staphylococcus aureus. Put plainly: Antibacterial activity against gram positive methicillin-resistant Staphylococcus aureus HCCB 20252 assessed as inhibition of bacterial growth incubated for 20 hrs by microtiter plate method.
Experiment [6] has as its system Staphylococcus aureus. Put plainly: Antibacterial activity against gram positive methicillin-resistant Staphylococcus aureus ATCC 43300 assessed as inhibition of bacterial growth incubated for 20 hrs by microtiter plate method.
Experiment [7] concerns Staphylococcus aureus. Put plainly: Antibacterial activity against gram positive methicillin-sensitive Staphylococcus aureus ATCC 6538 assessed as inhibition of bacterial growth incubated for 20 hrs by microtiter plate method.
For experiment [8], the system named is Staphylococcus aureus. Put plainly: Antibacterial activity against gram positive methicillin-resistant Staphylococcus aureus HCCB 20251 assessed as inhibition of bacterial growth incubated for 20 hrs by microtiter plate method.

Values after ≈ are worked out from the molar mass of the structure shown.

Broadly, the MIC is the least concentration at which growth counts as inhibited. With `C=C(NC(=O)C(=C)NC(=O)c1csc(-c2ccc3c(n2)-c2csc(n2)[C@@H]2CSC(=O)c4[nH]c5cccc(c5c4C)COC(=O)CC[C@H](NC(=O)c4csc(n4)/C(=C/C)NC(=O)[C@H]([C@@H](C)O)NC(=O)c4csc-3n4)c3nc(cs3)C(=O)N2)n1)C(=O)O`, the MIC was over 1.02 µg/mL in the experiment on Enterococcus faecium [1]; 0.512 µg/mL (≈ 0.406 µM) with Enterococcus faecium [2]; 1.02 µg/mL (≈ 0.812 µM) in the experiment on Enterococcus faecium [3]; 0.016 µg/mL (≈ 0.0127 µM) with Staphylococcus aureus [4]; 0.064 µg/mL (≈ 0.0508 µM) with Staphylococcus aureus [5]; 0.032 µg/mL (≈ 0.0254 µM) with Staphylococcus aureus [6]. The values for the MIC in the experiment with Staphylococcus aureus [7] and with Staphylococcus aureus [8] were 0.016 µg/mL (≈ 0.0127 µM) and 0.064 µg/mL (≈ 0.0508 µM), respectively.
As to `C=C(NC(=O)c1csc(-c2nc3c(cc2O)-c2nc(cs2)C(=O)N[C@@H]([C@@H](C)O)C(=O)N/C(=C\C)c2nc(cs2)C(=O)N[C@H]2CCC(=O)OCc4cccc5sc(c(C)c45)C(=O)SC[C@H](NC(=O)c4csc2n4)c2nc-3cs2)n1)C(N)=O`, the MIC in the experiment on Enterococcus faecium [1] stood at 0.064 µg/mL (≈ 0.0523 µM); in the experiment on Enterococcus faecium [2], 0.032 µg/mL (≈ 0.0262 µM); with Enterococcus faecium [3], 0.064 µg/mL (≈ 0.0523 µM); with Staphylococcus aureus [4] it was 0.032 µg/mL (≈ 0.0262 µM); in the experiment with Staphylococcus aureus [5], 0.008 µg/mL (≈ 0.00654 µM); with Staphylococcus aureus [6] it was 0.008 µg/mL (≈ 0.00654 µM). The MIC amounted to 0.004 µg/mL (≈ 0.00327 µM) in the experiment with Staphylococcus aureus [7] and 0.016 µg/mL (≈ 0.0131 µM) with Staphylococcus aureus [8].
Consider `CN[C@H](CC(C)C)C(=O)N[C@H]1C(=O)N[C@@H](CC(N)=O)C(=O)N[C@H]2C(=O)N[C@H]3C(=O)N[C@H](C(=O)N[C@H](C(=O)O)c4cc(O)cc(O)c4-c4cc3ccc4O)[C@H](O)c3ccc(c(Cl)c3)Oc3cc2cc(c3O[C@@H]2O[C@H](CO)[C@@H](O)[C@H](O)[C@H]2O[C@H]2C[C@](C)(N)[C@H](O)[C@H](C)O2)Oc2ccc(cc2Cl)[C@H]1O` [VANCOMYCIN], for which the minimal inhibitory concentration (MIC) in the experiment with Enterococcus faecium [2] is over 128 µg/mL.
Turning to `C=C(NC(=O)c1csc(-c2nc3c(cc2O)-c2nc(cs2)C(=O)N[C@@H]([C@@H](C)O)C(=O)N/C(=C\C)c2nc(cs2)C(=O)N[C@H]2C[C@H](O)C(=O)OCc4cccc5[nH]c(c(C)c45)C(=O)SC[C@H](NC(=O)c4csc2n4)c2nc-3cs2)n1)C(N)=O`, the minimal inhibitory concentration (MIC) with Enterococcus faecium [1] is 0.016 µg/mL (≈ 0.0131 µM); in the experiment with Enterococcus faecium [2], at most 0.008 µg/mL; with Enterococcus faecium [3], 0.032 µg/mL (≈ 0.0262 µM); with Staphylococcus aureus [4], 0.008 µg/mL (≈ 0.00654 µM); in the experiment on Staphylococcus aureus [5], 0.008 µg/mL (≈ 0.00654 µM); with Staphylococcus aureus [6], 0.008 µg/mL (≈ 0.00654 µM). The results for the minimum inhibitory concentration (MIC) with Staphylococcus aureus [7] and in the experiment with Staphylococcus aureus [8] were 0.002 µg/mL (≈ 0.00164 µM) and 0.008 µg/mL (≈ 0.00654 µM), respectively.
As for `C=C(NC(=O)c1csc(-c2nc3c(cc2O)-c2nc(cs2)C(=O)N[C@@H]([C@@H](C)O)C(=O)N/C(=C\C)c2nc(cs2)C(=O)N[C@H]2C[C@H](O)C(=O)OCc4cccc5sc(c(C)c45)C(=O)SC[C@H](NC(=O)c4csc2n4)c2nc-3cs2)n1)C(N)=O`, the MIC amounted to 0.064 µg/mL (≈ 0.0516 µM) in the experiment with Enterococcus faecium [1]; 0.016 µg/mL (≈ 0.0129 µM) in the experiment with Enterococcus faecium [2]; 0.064 µg/mL (≈ 0.0516 µM) in the experiment on Enterococcus faecium [3]; 0.008 µg/mL (≈ 0.00645 µM) in the experiment on Staphylococcus aureus [4]; 0.008 µg/mL (≈ 0.00645 µM) in the experiment with Staphylococcus aureus [5]; 0.008 µg/mL (≈ 0.00645 µM) with Staphylococcus aureus [6]. The results for the MIC in the experiment with Staphylococcus aureus [7] and with Staphylococcus aureus [8] were 0.004 µg/mL (≈ 0.00323 µM) and 0.016 µg/mL (≈ 0.0129 µM), respectively.
As to `C=C(NC(=O)C(=C)NC(=O)c1csc(-c2ccc3c(n2)-c2csc(n2)[C@@H]2CSC(=O)c4sc5cccc(c5c4C)COC(=O)CC[C@H](NC(=O)c4csc(n4)/C(=C/C)NC(=O)[C@H]([C@@H](C)O)NC(=O)c4csc-3n4)c3nc(cs3)C(=O)N2)n1)C(=O)O`, the MIC with Enterococcus faecium [1] was found to be 1.02 µg/mL (≈ 0.802 µM); in the experiment with Enterococcus faecium [2] it was 0.512 µg/mL (≈ 0.401 µM); in the experiment on Enterococcus faecium [3] it was 1.02 µg/mL (≈ 0.802 µM); with Staphylococcus aureus [4], 0.032 µg/mL (≈ 0.025 µM); in the experiment on Staphylococcus aureus [5], 0.032 µg/mL (≈ 0.025 µM); in the experiment on Staphylococcus aureus [6], 0.032 µg/mL (≈ 0.025 µM). Moreover, the values for the MIC with Staphylococcus aureus [7] and in the experiment on Staphylococcus aureus [8] were 0.016 µg/mL (≈ 0.0125 µM) and 0.064 µg/mL (≈ 0.0501 µM), respectively.

The values are drawn from ChEMBL document CHEMBL5137124, “Mutasynthesis Generates Antibacterial Benzothiophenic-Containing Nosiheptide Analogues” (2022).
